Assay results reported in ChEMBL document CHEMBL1122832, “4-substituted 5-[m-(trifluoromethyl)phenoxy]primaquine analogues as potential antimalarial agents” (1985).
Where “and” joins values, the source holds several entries; their conditions need not be identical. Equal values may be shown once.

Tests used:
Format in all cases: functional
Mus musculus [1] = experiment: Antimalarial activity against Plasmodium berghei in mice (Mus musculus) at a dose of 160 mg/kg and activity expressed as number cures surviving 60 days
Mus musculus [2] = experiment: Antimalarial activity against Plasmodium berghei in mice (Mus musculus) at a dose of 20 mg/kg and activity expressed as number cures surviving 60 days
Mus musculus [3] = experiment: Antimalarial activity against Plasmodium berghei in mice (Mus musculus) at a dose of 40 mg/kg and activity expressed as number cures surviving 60 days
Mus musculus [4] = experiment: Antimalarial activity against Plasmodium berghei in mice (Mus musculus) at a dose of 640 mg/kg and activity expressed as number cures surviving 60 days
Mus musculus [5] = experiment: Antimalarial activity against Plasmodium berghei in mice (Mus musculus) at a dose of 640 mg/kg and activity expressed as toxic deaths on days 2-5
Plasmodium cynomolgi [6] = experiment: Antimalarial activity against Plasmodium cynomolgi infected Rhesus monkeys (Macaca mulatta) at 0.316 mg/kg dose; Cured 2 of 2
Plasmodium cynomolgi [7] = experiment: Antimalarial activity against Plasmodium cynomolgi infected Rhesus monkeys (Macaca mulatta) at 1.0 mg/kg; cured 2 of 2
Plasmodium cynomolgi [8] = experiment: Antimalarial activity against Plasmodium cynomolgi infected Rhesus monkeys (Macaca mulatta) at 0.1 mg/kg; cured 0 of 1
Mus musculus [9] = experiment: Mean survival time of mice(Plasmodium berghei) at a dose of 160 mg/kg, total no. of mice = 5
Mus musculus [10] = experiment: Mean survival time of mice(Plasmodium berghei) at a dose of 40 mg/kg, total no. of mice = 5
Mus musculus [11] = experiment: Mean survival time of mice(Plasmodium berghei) at a dose of 640 mg/kg, total no. of mice = 5
Plasmodium cynomolgi [12] = experiment: Antimalarial activity against Plasmodium cynomolgi infected Rhesus monkeys (Macaca mulatta) at 1.0 mg/kg;cured 0 of 2
Plasmodium cynomolgi [13] = experiment: Antimalarial activity against Plasmodium cynomolgi infected Rhesus monkeys (Macaca mulatta) at 1.0 mg/kg; relapses
Mus musculus [14] = experiment: Antimalarial activity against Plasmodium berghei in mice (Mus musculus) at a dose of 320 mg/kg and activity expressed as number cures surviving 60 days
Mus musculus [15] = experiment: Antimalarial activity against Plasmodium berghei in mice (Mus musculus) at a dose of 80 mg/kg and activity expressed as number cures surviving 60 days
Mus musculus [16] = experiment: Antimalarial activity against Plasmodium berghei yoelii in mice (Mus musculus) at a dose of 10 mg/kg administered subcutaneously and activity expressed as cures; 6/25; details: route subcutaneous
Mus musculus [17] = experiment: Antimalarial activity against Plasmodium berghei yoelii in mice (Mus musculus) at a dose of 160 mg/kg administered by subcutaneous and activity expressed as cures; 2/25
Mus musculus [18] = experiment: Antimalarial activity against Plasmodium berghei yoelii in mice (Mus musculus) at a dose of 40 mg/kg administered subcutaneously and activity expressed as cures; 5/25; details: route subcutaneous
Mus musculus [19] = experiment: Mean survival time of mice(Plasmodium berghei) at a dose of 10 mg/kg, total no. of mice = 5
Mus musculus [20] = experiment: Mean survival time of mice(Plasmodium berghei) at a dose of 5 mg/kg, total no. of mice = 5
Plasmodium cynomolgi [21] = experiment: Antimalarial activity against Plasmodium cynomolgi infected Rhesus monkeys (Macaca mulatta) at 0.1 mg/kg; relapses in 2 of 2
Plasmodium cynomolgi [22] = experiment: Antimalarial activity against Plasmodium cynomolgi infected Rhesus monkeys (Macaca mulatta) at 0.1 mg/kg; cured 0 of 2
Mus musculus [23] = experiment: Antimalarial activity against Plasmodium berghei in mice (Mus musculus) at a dose of 160 mg/kg and activity expressed as toxic deaths on days 2-5
Mus musculus [24] = experiment: Antimalarial activity against Plasmodium berghei yoelii in mice (Mus musculus) at a dose of 10 mg/kg administered by peroral and activity expressed as cures; 5/5; details: route oral
Mus musculus [25] = experiment: Antimalarial activity against Plasmodium berghei yoelii in mice (Mus musculus) at a dose of 10 mg/kg administered by subcutaneous and activity expressed as cures; 8/10
Mus musculus [26] = experiment: Antimalarial activity against Plasmodium berghei yoelii in mice (Mus musculus) at a dose of 160 mg/kg administered subcutaneously and activity expressed as cures; […]; details: route subcutaneous
Mus musculus [27] = experiment: Antimalarial activity against Plasmodium berghei yoelii in mice (Mus musculus) at a dose of 2.5 mg/kg administered by peroral and activity expressed as cures; 0/5; details: route oral
Mus musculus [28] = experiment: Antimalarial activity against Plasmodium berghei yoelii in mice (Mus musculus) at a dose of 2.5 mg/kg administered by subcutaneous and activity expressed as cures; 1/5
Mus musculus [29] = experiment: Antimalarial activity against Plasmodium berghei yoelii in mice (Mus musculus) at a dose of 40 mg/kg administered by peroral and activity expressed as cures; 4/5; details: route oral
Plasmodium cynomolgi [30] = experiment: Antimalarial activity against Plasmodium cynomolgi infected Rhesus monkeys (Macaca mulatta) at 0.316 mg/kg; cured 1 of 2
Plasmodium cynomolgi [31] = experiment: Antimalarial activity as relapses in Plasmodium cynomolgi infected Rhesus monkeys (Macaca mulatta) at 0.1 mg/kg
Plasmodium cynomolgi [32] = experiment: Antimalarial activity against Plasmodium cynomolgi infected Rhesus monkeys (Macaca mulatta) at 0.316 mg/kg; relapses
Mus musculus [33] = experiment: Antimalarial activity against Plasmodium berghei yoelii in mice (Mus musculus) at a dose of 40 mg/kg administered subcutaneously and activity expressed as cures; 9/10; details: route subcutaneous
Mus musculus [34] = experiment: Antimalarial activity against Plasmodium berghei yoelii in mice (Mus musculus) at a dose of 10 mg/kg administered perorally and activity expressed as cures; 0/15; details: route oral
Mus musculus [35] = experiment: Antimalarial activity against Plasmodium berghei yoelii in mice (Mus musculus) at a dose of 10 mg/kg administered subcutaneously and activity expressed as cures; 9/15; details: route subcutaneous
Mus musculus [36] = experiment: Antimalarial activity against Plasmodium berghei yoelii in mice (Mus musculus) at a dose of 160 mg/kg administered subcutaneously and activity expressed as cures; 10/10; details: route subcutaneous
Mus musculus [37] = experiment: Antimalarial activity against Plasmodium berghei yoelii in mice (Mus musculus) at a dose of 2.5 mg/kg administered subcutaneously and activity expressed as cures; 0/5; details: route subcutaneous
Mus musculus [38] = experiment: Antimalarial activity against Plasmodium berghei yoelii in mice (Mus musculus) at a dose of 40 mg/kg administered by subcutaneous and activity expressed as cures; 12/15
Mus musculus [39] = experiment: Mean survival time of mice(Plasmodium berghei) at a dose of 20 mg/kg, total no. of mice = 5
Mus musculus [40] = experiment: Antimalarial activity against Plasmodium berghei yoelii in mice (Mus musculus) at a dose of 10 mg/kg administered by peroral and activity expressed as cures; 3/10; details: route oral
Mus musculus [41] = experiment: Antimalarial activity against Plasmodium berghei yoelii in mice (Mus musculus) at a dose of 10 mg/kg administered by subcutaneous and activity expressed as cures; 10/15
Mus musculus [42] = experiment: Antimalarial activity against Plasmodium berghei yoelii in mice (Mus musculus) at a dose of 2.5 mg/kg administered perorally and activity expressed as cures; 3/10; details: route oral
Mus musculus [43] = experiment: Antimalarial activity against Plasmodium berghei yoelii in mice (Mus musculus) at a dose of 2.5 mg/kg administered by subcutaneous and activity expressed as cures; 0/10
Mus musculus [44] = experiment: Antimalarial activity against Plasmodium berghei yoelii in mice (Mus musculus) at a dose of 40 mg/kg administered perorally and activity expressed as cures; details: route oral
Mus musculus [45] = experiment: Antimalarial activity against Plasmodium berghei yoelii in mice (Mus musculus) at a dose of 40 mg/kg administered by subcutaneous and activity expressed as cures; 14/15
Mus musculus [46] = experiment: Mean survival time of mice(Plasmodium berghei) at a dose of 320 mg/kg, total no. of mice = 5
Mus musculus [47] = experiment: Antimalarial activity against Plasmodium berghei in mice (Mus musculus) at a dose of 64 mg/kg and activity expressed as toxic deaths on days 2-5
Mus musculus [48] = experiment: Antimalarial activity against Plasmodium berghei yoelii in mice (Mus musculus) at a dose of 160 mg/kg administered by subcutaneous and activity expressed as toxic
Mus musculus [49] = experiment: Antimalarial activity against Plasmodium berghei yoelii in mice (Mus musculus) at a dose of 2.5 mg/kg and activity expressed as toxic
Plasmodium cynomolgi [50] = experiment: Antimalarial activity against Plasmodium cynomolgi infected Rhesus monkeys (Macaca mulatta) at 1.0 mg/kg; cured 0 of 1
Mus musculus [51] = experiment: Antimalarial activity against Plasmodium berghei yoelii in mice (Mus musculus) at a dose of 160 mg/kg administered subcutaneously and activity expressed as cures; details: route subcutaneous
Mus musculus [52] = experiment: Mean survival time of mice(Plasmodium berghei) at a dose of 80 mg/kg, total no. of mice = 5
Mus musculus [53] = experiment: Antimalarial activity against Plasmodium berghei in mice (Mus musculus) at a dose of 320 mg/kg and activity expressed as toxic deaths on days 2-5
Plasmodium cynomolgi [54] = experiment: Antimalarial activity against Plasmodium cynomolgi in Rhesus monkeys (Macaca mulatta) at 0.316 mg/kg; cured 0 of 2
Plasmodium cynomolgi [55] = experiment: Antimalarial activity against Plasmodium cynomolgi infected Rhesus monkeys (Macaca mulatta) at 1.0 mg/kg; cured 1 of 2

COc1cc(NC(C)CCCN)c2nccc(C)c2c1Oc1cccc(C(F)(F)F)c1 (stereo unspecified)
Cures (Mus musculus [1]): 5
Cures (Mus musculus [2]): 5
Cures (Mus musculus [3]): 5
Cures (Mus musculus [4]): 1
Toxic (Mus musculus [5]): 4
Cures (Plasmodium cynomolgi [6]): 2
Cures (Plasmodium cynomolgi [7]): 2
Cures (Plasmodium cynomolgi [8]): 0

C=Cc1ccnc2c(NC(C)CCCN)cc(OC)c(Oc3cccc(C(F)(F)F)c3)c12 (stereo unspecified)
Delta MST (Mus musculus [9]): 3.7
Delta MST (Mus musculus [10]): -0.1
Delta MST (Mus musculus [11]): 8.1
Cures (Plasmodium cynomolgi [12]): 0
Relapses (Plasmodium cynomolgi [13]): 12 and 19

CCc1ccnc2c(NC(C)CCCN)cc(OC)c(Oc3cccc(C(F)(F)F)c3)c12 (stereo unspecified)
Cures (Mus musculus [1]): 5
Cures (Mus musculus [2]): 3
Cures (Mus musculus [14]): 5
Cures (Mus musculus [3]): 4
Cures (Mus musculus [4]): 1
Cures (Mus musculus [15]): 4
Cures (Mus musculus [16]): 6
Cures (Mus musculus [17]): 2
Cures (Mus musculus [18]): 5
Delta MST (Mus musculus [19]): 5.3
Delta MST (Mus musculus [20]): 1.7
Cures (Plasmodium cynomolgi [6]): 2
Cures (Plasmodium cynomolgi [7]): 2
Relapses (Plasmodium cynomolgi [21]): 20
Cures (Plasmodium cynomolgi [22]): 0
Toxic (Mus musculus [23]): 3

COCc1ccnc2c(NC(C)CCCN)cc(OC)c(Oc3cccc(C(F)(F)F)c3)c12 (stereo unspecified)
Cures (Mus musculus [1]): 4
Cures (Mus musculus [2]): 1
Cures (Mus musculus [14]): 4
Cures (Mus musculus [3]): 5
Cures (Mus musculus [4]): 2
Cures (Mus musculus [15]): 5
Cures (Mus musculus [24]): 5
Cures (Mus musculus [25]): 8
Cures (Mus musculus [26]): 5
Cures (Mus musculus [27]): 0
Cures (Mus musculus [28]): 1
Cures (Mus musculus [29]): 4
Delta MST (Mus musculus [19]): 6.6
Delta MST (Mus musculus [20]): 2.8
Cures (Plasmodium cynomolgi [30]): 1
Cures (Plasmodium cynomolgi [7]): 2
Relapses (Plasmodium cynomolgi [31]): 8
Relapses (Plasmodium cynomolgi [32]): 28
Cures (Plasmodium cynomolgi [22]): 0
Cures (Mus musculus [33]): 9

COc1cc(NC(C)CCCN)c2nccc(C(OC)OC)c2c1Oc1cccc(C(F)(F)F)c1 (stereo unspecified)
Cures (Mus musculus [1]): 3
Cures (Mus musculus [14]): 2
Cures (Mus musculus [15]): 1
Cures (Mus musculus [34]): 0
Cures (Mus musculus [35]): 9
Cures (Mus musculus [36]): 10
Cures (Mus musculus [27]): 0
Cures (Mus musculus [37]): 0
Cures (Mus musculus [29]): 4
Cures (Mus musculus [38]): 12
Delta MST (Mus musculus [19]): 2.5
Delta MST (Mus musculus [39]): 5.5
Delta MST (Mus musculus [10]): 8.5
Delta MST (Mus musculus [20]): 1.9
Toxic (Mus musculus [5]): 5
Cures (Plasmodium cynomolgi [12]): 0
Relapses (Plasmodium cynomolgi [13]): 24 and 44

COc1cc(NC(C)CCCN)c2nccc(CO)c2c1Oc1cccc(C(F)(F)F)c1 (stereo unspecified)
Cures (Mus musculus [15]): 1
Cures (Mus musculus [40]): 3
Cures (Mus musculus [41]): 10
Cures (Mus musculus [42]): 3
Cures (Mus musculus [43]): 0
Cures (Mus musculus [44]): 10
Cures (Mus musculus [45]): 14
Delta MST (Mus musculus [19]): 1.4
Delta MST (Mus musculus [9]): 14.8
Delta MST (Mus musculus [39]): 3.6
Delta MST (Mus musculus [46]): 13.1
Delta MST (Mus musculus [10]): 3.8
Delta MST (Mus musculus [20]): 0.6
Toxic (Mus musculus [47]): 4
Toxic (Mus musculus [48]): 2
Toxic (Mus musculus [49]): 7
Cures (Plasmodium cynomolgi [50]): 0
Cures (Mus musculus [51]): 3

COc1cc(NC(C)CCCN)c2ncccc2c1.O=P(O)(O)O.O=P(O)(O)O (stereo unspecified) [PRIMAQUINE PHOSPHATE]
Delta MST (Mus musculus [52]): 9
Toxic (Mus musculus [53]): 5
Toxic (Mus musculus [5]): 5
Toxic (Mus musculus [23]): 2

COc1cc(NC(C)CCCN)c2ncccc2c1 (stereo unspecified) [PRIMAQUINE]
Cures (Plasmodium cynomolgi [54]): 0
Cures (Plasmodium cynomolgi [55]): 1
Cures (Plasmodium cynomolgi [22]): 0
